Results reported in PMC6257821, “Selective agonist of TRPML2 reveals direct role in chemokine release from innate immune cells” (eLife, 2018).

Tests used:
Format in all cases: cell-based
hTRPML1 = target: T1, hTRPML1 (Homo sapiens, UniProt Q9GZU1); assay: endolysosomal patch-clamp (LE/LY, HEK293), […], positive control
T1 construct: gene MCOLN1

hTRPML3 = target: T2, hTRPML3 (Homo sapiens, UniProt Q8TDD5); assay: as above; parameters: gene MCOLN3
T2 sequence (Q8TDD5 1-553): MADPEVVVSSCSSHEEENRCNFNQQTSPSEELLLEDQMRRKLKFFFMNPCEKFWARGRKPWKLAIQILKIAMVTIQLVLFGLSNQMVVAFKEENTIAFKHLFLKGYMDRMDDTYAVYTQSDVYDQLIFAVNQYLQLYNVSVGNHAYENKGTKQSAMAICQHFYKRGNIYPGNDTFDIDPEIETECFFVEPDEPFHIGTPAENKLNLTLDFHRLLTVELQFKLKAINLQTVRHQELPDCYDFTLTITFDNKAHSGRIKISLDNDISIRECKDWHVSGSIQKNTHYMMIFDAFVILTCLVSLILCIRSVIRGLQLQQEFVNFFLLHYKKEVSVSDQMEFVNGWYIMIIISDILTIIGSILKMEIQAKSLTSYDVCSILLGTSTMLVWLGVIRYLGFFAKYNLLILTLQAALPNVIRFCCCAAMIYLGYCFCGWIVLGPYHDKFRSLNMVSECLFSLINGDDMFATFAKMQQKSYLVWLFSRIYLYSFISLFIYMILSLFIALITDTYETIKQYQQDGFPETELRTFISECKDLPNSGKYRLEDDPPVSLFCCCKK

hTRPML2 = target: T3, hTRPML2 (Homo sapiens, UniProt Q8IZK6); assay: fura-2 calcium imaging dose-response and endolysosomal patch-clamp in HEK293 cells; G425A mutation abrogates effect
T3 construct: gene MCOLN2; hTRPML2-YFP
T3 sequence (Q8IZK6 1-566): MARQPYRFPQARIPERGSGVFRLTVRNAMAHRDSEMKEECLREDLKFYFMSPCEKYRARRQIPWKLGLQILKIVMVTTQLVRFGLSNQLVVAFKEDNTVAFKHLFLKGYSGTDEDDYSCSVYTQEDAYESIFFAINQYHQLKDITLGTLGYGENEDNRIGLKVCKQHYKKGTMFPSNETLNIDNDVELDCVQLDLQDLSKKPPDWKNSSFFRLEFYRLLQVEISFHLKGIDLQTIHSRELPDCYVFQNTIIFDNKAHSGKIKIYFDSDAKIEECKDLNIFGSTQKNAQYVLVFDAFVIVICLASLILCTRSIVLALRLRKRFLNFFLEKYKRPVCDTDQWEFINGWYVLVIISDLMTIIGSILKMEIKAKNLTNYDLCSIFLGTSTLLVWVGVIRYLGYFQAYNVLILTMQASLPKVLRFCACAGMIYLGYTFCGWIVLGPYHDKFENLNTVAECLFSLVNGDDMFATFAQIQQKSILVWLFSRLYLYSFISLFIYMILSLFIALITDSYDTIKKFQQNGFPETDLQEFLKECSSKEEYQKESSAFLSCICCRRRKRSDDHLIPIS

mTRPML2 = target: T4, mTRPML2 (Mus musculus, UniProt Q8K595); assay: fura-2 calcium imaging dose-response in HEK293 cells; endolysosomal patch-clamp in LPS-stimulated mouse macrophages
T4 construct: gene Mcoln2
T4 sequence (Q8K595 1-566): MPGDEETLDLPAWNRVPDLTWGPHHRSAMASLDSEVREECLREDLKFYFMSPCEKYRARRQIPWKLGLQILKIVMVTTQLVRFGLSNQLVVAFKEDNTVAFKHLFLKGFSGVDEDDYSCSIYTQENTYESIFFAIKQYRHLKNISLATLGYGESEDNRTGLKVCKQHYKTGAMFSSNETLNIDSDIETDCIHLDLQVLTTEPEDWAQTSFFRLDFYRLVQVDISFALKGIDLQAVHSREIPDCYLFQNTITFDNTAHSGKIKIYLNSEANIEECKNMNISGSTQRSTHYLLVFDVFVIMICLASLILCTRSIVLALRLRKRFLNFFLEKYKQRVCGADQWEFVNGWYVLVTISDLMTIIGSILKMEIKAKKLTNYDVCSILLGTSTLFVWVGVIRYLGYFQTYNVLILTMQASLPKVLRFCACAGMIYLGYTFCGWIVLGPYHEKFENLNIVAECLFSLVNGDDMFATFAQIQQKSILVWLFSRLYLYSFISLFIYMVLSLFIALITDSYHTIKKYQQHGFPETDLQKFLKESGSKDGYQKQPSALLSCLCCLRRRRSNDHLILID

T1 sequence (Q9GZU1 whole entry): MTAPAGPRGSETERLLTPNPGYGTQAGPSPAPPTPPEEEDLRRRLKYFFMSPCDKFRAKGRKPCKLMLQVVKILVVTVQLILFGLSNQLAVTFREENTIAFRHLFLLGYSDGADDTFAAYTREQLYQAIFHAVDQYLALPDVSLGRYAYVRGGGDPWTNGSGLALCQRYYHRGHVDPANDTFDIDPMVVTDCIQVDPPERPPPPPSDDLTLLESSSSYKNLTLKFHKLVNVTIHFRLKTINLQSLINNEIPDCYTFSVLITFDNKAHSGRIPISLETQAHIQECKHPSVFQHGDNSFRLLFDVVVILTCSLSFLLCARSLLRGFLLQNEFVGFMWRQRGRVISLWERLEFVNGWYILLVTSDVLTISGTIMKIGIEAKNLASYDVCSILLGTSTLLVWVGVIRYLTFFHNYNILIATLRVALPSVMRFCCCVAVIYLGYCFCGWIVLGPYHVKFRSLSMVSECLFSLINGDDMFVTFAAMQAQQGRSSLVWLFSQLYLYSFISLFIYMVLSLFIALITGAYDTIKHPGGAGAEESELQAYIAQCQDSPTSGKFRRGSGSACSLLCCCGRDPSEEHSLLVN

For `CC1CC(C)(C)N(C(=O)CN2C(=O)c3ccccc3C2=O)c2ccccc21` (stereo not shown) [ML-SA1], which “endolysosomal patch-clamp (LE/LY, HEK293), 10 μM, positive control” value (hTRPML1) is on record?
The value was “the latter ones were robustly activated by ML-SA1 as a positive control”.

What about the “endolysosomal patch-clamp (LE/LY, HEK293), 10 μM, positive control” value (hTRPML3) of the same molecule?
The value was “the latter ones were robustly activated by ML-SA1 as a positive control”.

For `Clc1cccc(Cl)c1C1=NOC2C3CCC(C3)C12` (stereo not shown) [EVP-22, ML2-SA1], which EC50 (hTRPML2) is on record?
The EC50 was 1240 ± 120 nM.

What about the EC50 (mTRPML2) of the same molecule?
The EC50 was 2380 ± 10 nM.
